Measurements taken from ChEMBL document CHEMBL3576828, “Acredinones A and B, voltage-dependent potassium channel inhibitors from the sponge-derived fungus Acremonium sp. F9A015” (J Nat Prod, 2015).
Activity calls are given as the source filed them. The rule behind the calls is not given here.

What was measured:
[1] = target: T1, Potassium voltage-gated channel subfamily B member 1 (Homo sapiens, UniProt Q14721); experiment: (§1) Inhibition of Kv2.1 channel in […] INS1 cells assessed as inhibition of outward K+ current by electrophysiology/patch clamp technique; format: cell-based
T1 sequence (Q14721 whole entry): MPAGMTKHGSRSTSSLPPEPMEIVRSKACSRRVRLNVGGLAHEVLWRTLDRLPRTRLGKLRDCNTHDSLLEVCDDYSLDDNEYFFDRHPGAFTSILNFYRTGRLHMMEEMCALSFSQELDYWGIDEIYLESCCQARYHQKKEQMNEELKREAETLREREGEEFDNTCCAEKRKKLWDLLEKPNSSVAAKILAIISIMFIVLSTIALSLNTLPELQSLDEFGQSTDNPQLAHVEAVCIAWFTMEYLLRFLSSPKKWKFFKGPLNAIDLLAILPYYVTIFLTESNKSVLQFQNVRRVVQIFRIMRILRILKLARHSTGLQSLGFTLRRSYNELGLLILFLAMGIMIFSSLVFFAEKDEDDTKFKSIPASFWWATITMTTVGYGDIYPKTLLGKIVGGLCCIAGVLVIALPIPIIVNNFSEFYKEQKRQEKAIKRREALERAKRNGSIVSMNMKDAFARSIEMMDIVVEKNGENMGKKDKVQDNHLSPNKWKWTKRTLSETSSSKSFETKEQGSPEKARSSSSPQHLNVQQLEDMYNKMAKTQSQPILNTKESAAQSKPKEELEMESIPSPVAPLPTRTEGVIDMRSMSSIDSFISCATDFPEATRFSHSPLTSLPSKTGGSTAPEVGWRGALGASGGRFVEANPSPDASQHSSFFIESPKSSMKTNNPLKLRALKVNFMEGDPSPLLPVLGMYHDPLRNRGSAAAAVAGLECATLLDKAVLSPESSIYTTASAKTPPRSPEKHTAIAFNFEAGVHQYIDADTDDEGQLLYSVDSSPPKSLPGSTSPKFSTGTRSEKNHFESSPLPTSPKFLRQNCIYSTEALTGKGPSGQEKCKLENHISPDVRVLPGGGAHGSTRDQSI

[2] = target: T2, Potassium voltage-gated channel subfamily B member 1 (Homo sapiens) (UniProt Q14721); experiment: as §1; format: cell-based
T2 sequence (whole entry): T1 sequence (Q14721 whole entry)

| SMILES | IC50 [1] [nM] | inhibition [2] |
| --- | --- | --- |
| COc1cccc(OC)c1C(=O)c1c(O)cc(C)c(OC)c1CC(=O)c1c(OC)c(C)cc(O)c1C(=O)c1c(OC)cccc1OC | 1000 | – |
| COc1cccc(OC)c1C(=O)c1c(O)cc(C)c(OC)c1C1=C(c2c(OC)cccc2OC)c2c(O)cc(C)c(OC)c2C1=O | 590 | – |
| COc1cccc(OC)c1C(=O)c1c(O)cc(C)c(OC)c1COC(C)=O | – | inactive |
